According to US10478511B2, “Therapeutic agent for tauopathy and method for screening thereof” (National Center for Geriatrics and Gerontology, priority 2014, dated 2019):

Key:
tau proteins = conditions: tauopathy model mice, Non-Patent Document 3; cited from earlier work
[1] = tested on: Drosophila expressing human tau in neurons (elav/Y; hTau/+); assay: Motor function (climbing assay, negative gravitaxis) of Drosophila expressing human tau in neurons; format: in vivo; conditions: 1 mM in food, versus non-administration group, FIG. 5
Experimental: (§1) Male F1 Drosophila one to three days after emergence were bred under an environment consisting of a temperature of 25±3° C., a humidity of 60±10%, and a light-dark cycle of 12 hours. […] The flies were transferred into a vial filled with fresh food once every two weeks.
The motor function of Drosophila of was measured by performing climbing assay and evaluating negative gravitaxis. The climbing assay was carried out under the following conditions. Drosophila was transferred into an empty vial containing no food, and the vial was then hit, so that flies fell to the bottom. Thereafter, the movement of the flies climbing up the wall was captured on video. The flies, which were below the line drawn at the position 3 cm from the bottom 10 seconds after they had fallen to the bottom, were defined as “flies that could not climb”, and flies, which were above the aforementioned line, were defined as “flies that could climb”. The number of flies of each type was counted. The total number of flies in the vial was set at 100%, and the percentage of the flies that could climb was calculated.

human tau protein = target: T1, human tau protein (Homo sapiens, UniProt P10636); assay: Quantification of aggregated tau in brain of Drosophila expressing human tau in neurons (elav/Y; hTau/+); format: in vivo; conditions: hTau/+ flies, 1 mM in food, bred 1 month, versus non-administration group (100%), FIG. 4
T1 construct: expressed in transfected cells; host or cells: transgenic Drosophila (GAL4-UAS; gmr-gal4 compound eyes or elav^C155-gal4 neurons), fly heads
T1 sequence (P10636 1-441 isoform P10636-8): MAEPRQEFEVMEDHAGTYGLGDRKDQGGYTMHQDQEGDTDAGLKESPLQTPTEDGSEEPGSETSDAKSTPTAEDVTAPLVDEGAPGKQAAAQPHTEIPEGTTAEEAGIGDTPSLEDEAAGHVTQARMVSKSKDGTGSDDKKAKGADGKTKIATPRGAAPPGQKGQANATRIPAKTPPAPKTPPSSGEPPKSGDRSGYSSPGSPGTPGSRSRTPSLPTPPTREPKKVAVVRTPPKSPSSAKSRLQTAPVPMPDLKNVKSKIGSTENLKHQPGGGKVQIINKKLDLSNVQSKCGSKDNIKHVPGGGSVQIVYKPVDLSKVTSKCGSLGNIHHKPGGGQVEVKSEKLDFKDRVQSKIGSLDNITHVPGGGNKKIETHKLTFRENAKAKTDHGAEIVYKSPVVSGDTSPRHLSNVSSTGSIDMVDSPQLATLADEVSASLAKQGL
Experimental: Thereafter, the recovered heads were cryopreserved at −80° C. […] The obtained supernatant was recovered in another ultracentrifuge tube.
Using the screening system established in 3 above, the tau protein aggregation-inhibiting effect of rose bengal, which is a fluorone dye, was evaluated. […] Thereafter, the accumulation of aggregated tau in brain was quantified according to the procedures in (2) above.

wild-type Drosophila [2] = assay: Survival rate of wild-type Drosophila; conditions: wild-type flies, 1 mM in food, versus non-administration group, FIG. 7
Experimental: as §1
Drosophila were bred under the conditions described in (1) above, and the number of surviving flies was counted every three days, and the survival rate was then calculated.
As a control, the Drosophila in the non-administration group was used.

[3] = tested on: Drosophila expressing human tau in mushroom body neurons (mb/Y; hTau/+); assay: Olfactory memory (discrimination learning test with odor and electric shock) of Drosophila expressing human tau in mushroom body neurons; format: in vivo; conditions: hTau/+ flies, administered over 1 week, versus non-administration, FIG. 9
Experimental: as §1

wild-type Drosophila [4] = conditions: in vivo
Experimental: as §1

Structure (SMILES)	accumulation of tau proteins in the brains (tau proteins)	motor function (percentage of flies that could climb) [1]	accumulated amount of aggregated tau in brain (human tau protein)	survival rate (wild-type Drosophila [2])	olfactory memory [3]	olfactory memory (wild-type Drosophila [4])
O=C1NC(=O)C(=O)C(=O)N1 [alloxan]	reduced	–	–	–	–	–
CN(C)c1ccc2nc3ccc(=[N+](C)C)cc-3sc2c1 [methylene blue]	–	recovered	reduction	significantly reduced	–	–
O=C([O-])c1c(Cl)c(Cl)c(Cl)c(Cl)c1-c1c2cc(I)c(=O)c(I)c-2oc2c(I)c([O-])c(I)cc12.[Na+].[Na+] [rose bengal]	–	recovered	reduction	–	significantly improved	no significant change
